Laboratory results published in patent publication US11634447B2 (priority 2012, dated 2023).

Target: bacterial strain LF82 binding to the glycoprotein BSA-(Mannose)3
Assay: Bacterial Binding Assay (BBA)
Assay type: cell-based, Escherichia coli
Settings: LF82/Luciferase strain binding to BSA-(Man)3 coated plates, luminescence; read-out: Bacterial Binding Assay IC50
Outline: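 Inhibition of LF82/luciferase E. coli adhesion is read as luminescence after washing off unbound cells. Compound and bacteria (10^7 per well) are co-incubated 40-75 min at room temperature on wells coated with 0.5-2 μg/mL BSA-(Man)3, with BSA-only wells as background; IC50 values derived.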

| SMILES | IC50 |
| --- | --- |
| OC[C@H]1O[C@H](C#Cc2ccc(-c3ccc(C#C[C@H]4O[C@H](CO)[C@@H](O)[C@H](O)[C@@H]4O)s3)s2)[C@@H](O)[C@@H](O)[C@@H]1O [Compound 128] | 22 nM |

Same assay, conditions: read-out: Bacterial Binding Assay IC50, LF82/Luciferase strain binding to BSA-(Man)3 coated plates, luminescence

| SMILES | IC50 |
| --- | --- |
| OC[C@H]1O[C@H](C#Cc2ccc(C#C[C@H]3O[C@H](CO)[C@@H](O)[C@H](O)[C@@H]3O)c(Cl)c2)[C@@H](O)[C@@H](O)[C@@H]1O [Compound 102, (2R,3S,4R,5S,6R)-2-[2-[3-chloro-4-[2-[(2R,3S,4R,5S,6R)-3,4,5-trihydroxy-6-(hydroxymethyl)tetrahydropyran-2-yl]ethynyl]phenyl]ethynyl]-6-(hydroxymethyl)tetrahydropyran-3,4,5-triol] | 24 nM |
| CCCCCCc1cc(C#C[C@H]2O[C@H](CO)[C@@H](O)[C@H](O)[C@@H]2O)c(CCCCCC)cc1C#C[C@H]1O[C@H](CO)[C@@H](O)[C@H](O)[C@@H]1O [Compound 82, (2R,3S,4R,5S,6R)-2-[2-[2,5-dihexyl-4-[2-[(2R,3S,4R,5S,6R)-3,4,5-trihydroxy-6-(hydroxymethyl)tetrahydropyran-2-yl]ethynyl]phenyl]ethynyl]-6-(hydroxymethyl)tetrahydropyran-3,4,5-triol] | 18 nM |
| OC[C@H]1O[C@H](C#Cc2cc(-c3ccccc3)c(C#C[C@H]3O[C@H](CO)[C@@H](O)[C@H](O)[C@@H]3O)cc2-c2ccccc2)[C@@H](O)[C@@H](O)[C@@H]1O [Compound 81, (2R,3S,4R,5S,6R)-2-[2-[2,5-dipheny1-4[2-[(2R,3S,4R,5S,6R)-3,4,5-trihydroxy-6-(hydroxymethyl)tetrahydropyran-2-yl]ethynyl]phenyl]ethynyl]-6-(hydroxymethyl)tetrahydropyran-3,4,5-triol] | 9 nM |
| OCCC1(O)c2cc(C#C[C@H]3O[C@H](CO)[C@@H](O)[C@H](O)[C@@H]3O)ccc2-c2ccc(C#C[C@H]3O[C@H](CO)[C@@H](O)[C@H](O)[C@@H]3O)cc21 [Compound 216, (2R,3S,4R,5S,6R)-2-[2-[9-hydroxy-9-(2-hydroxyethyl)-7-[2-[(2R,3S,4R,5S,6R)-3,4,5-trihydroxy-6-(hydroxymethyl)tetrahydropyran-2-yl]ethynyl]fluoren-2-yl]ethynyl]-6-(hydroxymethyl)tetrahydropyran-3,4,5-triol] | 9.9 nM |
| OC[C@H]1O[C@H](C#Cc2cc(F)c(C#C[C@H]3O[C@H](CO)[C@@H](O)[C@H](O)[C@@H]3O)c(F)c2)[C@@H](O)[C@@H](O)[C@@H]1O [Compound 93, (2R,3S,4R,5S,6R)-2-[2-[3,5-difluoro-4-[2-[(2R,3S,4R,5S,6R)-3,4,5-trihydroxy-6-(hydroxymethyl)tetrahydropyran-2-yl]ethynyl]phenyl]ethynyl]-6-(hydroxymethyl)tetrahydropyran-3,4,5-triol] | 88 nM |
| OC[C@H]1O[C@H](C#Cc2ccc3c(c2)C(O)(CC2CCCCC2)c2cc(C#C[C@H]4O[C@H](CO)[C@@H](O)[C@H](O)[C@@H]4O)ccc2-3)[C@@H](O)[C@@H](O)[C@@H]1O (stereo partly drawn) [Compound 215, (2R,3S,4R,5S,6R)-2-[2-[9-(cyclohexylmethyl)-9-hydroxy-7-[2-[(2R,3S,4R,5S,6R)-3,4,5-trihydroxy-6-(hydroxymethyl)tetrahydropyran-2-yl]ethynyl]fluoren-2-yl]ethynyl]-6-(hydroxymethyl)tetrahydropyran-3,4,5-triol] | 5 nM |
| CC(C)c1cc(C#C[C@H]2O[C@H](CO)[C@@H](O)[C@H](O)[C@@H]2O)c(C(C)C)cc1C#C[C@H]1O[C@H](CO)[C@@H](O)[C@H](O)[C@@H]1O [Compound 76] | 46 nM |
| OC[C@H]1O[C@H](C#Cc2csc3c(C#C[C@H]4O[C@H](CO)[C@@H](O)[C@H](O)[C@@H]4O)csc23)[C@@H](O)[C@@H](O)[C@@H]1O [Compound 132, (2R,3S,4R,5S,6R)-2-(hydroxymethyl)-6-[2-[6-[2-[(2R,3S,4R,5S,6R)-3,4,5-trihydroxy-6-(hydroxymethyl)tetrahydropyran-2-yl]ethynyl]thieno[3,2-b]thiophen-3-yl]ethynyl]tetrahydropyran-3,4,5-triol] | 52 nM |
| OC[C@H]1O[C@H](C#Cc2ccc3nc(C#C[C@H]4O[C@H](CO)[C@@H](O)[C@H](O)[C@@H]4O)ccc3c2)[C@@H](O)[C@@H](O)[C@@H]1O [Compound 126, (2R,3S,4R,5S,6R)-2-(hydroxymethyl)-6-[2-[2-[2-[(2R,3S,4R,5S,6R)-3,4,5-trihydroxy-6-(hydroxymethyl)tetrahydropyran-2-yl]ethynyl]-6-quinolyl]ethynyl]tetrahydropyran-3,4,5-triol] | 124 nM |
| NC(=O)CCC(=O)c1c(C#C[C@H]2O[C@H](CO)[C@@H](O)[C@H](O)[C@@H]2O)ccc2c1C1(CCNCC1)c1cc(C#C[C@H]3O[C@H](CO)[C@@H](O)[C@H](O)[C@@H]3O)ccc1-2 [Compound 234, 4-[2,7-bis[2-[(2R,3S,4R,5S,6R)-3,4,5-trihydroxy-6-(hydroxymethyl)tetrahydropyran-2-yl]ethynyl]spiro[fluorene-9,4piperidine]-1yl]-4-oxo-butanamide] | 0.04 nM |
| OC[C@H]1O[C@H](C#Cc2ccc(C#C[C@H]3O[C@H](CO)[C@@H](O)[C@H](O)[C@@H]3O)c(-c3ccccc3)c2)[C@@H](O)[C@@H](O)[C@@H]1O [Compound 77, (2R,3S,4R,5S,6R)-2-(hydroxymethyl)-6-[2-[3-phenyl-4-[2-[(2R,3S,4R,5S,6R)-3,4,5-trihydroxy-6-(hydroxymethyl)tetrahydropyran-2-yl]ethynyl]phenyl]ethynyl]tetrahydropyran-3,4,5-triol] | 4 nM |
| O=C1CCC2(CCO1)c1cc(C#C[C@H]3O[C@H](CO)[C@@H](O)[C@H](O)[C@@H]3O)ccc1-c1ccc(C#C[C@H]3O[C@H](CO)[C@@H](O)[C@H](O)[C@@H]3O)cc12 [Compound 218, 2,7-bis[2-[(2R,3S,4R,5S,6R)-3,4,5-trihydroxy-6-(hydroxymethyl)tetrahydropyran-2-yl]ethynyl]spiro[fluorene-9,5oxepane]-2one] | 0.09 nM |
| O=C(c1c(C#C[C@H]2O[C@H](CO)[C@@H](O)[C@H](O)[C@@H]2O)ccc2c1C1(CCNCC1)c1cc(C#C[C@H]3O[C@H](CO)[C@@H](O)[C@H](O)[C@@H]3O)ccc1-2)C1(O)CC1 [Compound 227, [2,7-bis[2-[(2R,3S,4R,5S,6R)-3,4,5-trihydroxy-6-(hydroxymethyl)tetrahydropyran-2-yl]ethynyl]spiro[fluorene-9,4piperidine]-1yl]-(1hydroxycyclopropyl)methanone] | 0.06 nM |
| CCC(=O)c1c(C#C[C@H]2O[C@H](CO)[C@@H](O)[C@H](O)[C@@H]2O)ccc2c1C1(CCNCC1)c1cc(C#C[C@H]3O[C@H](CO)[C@@H](O)[C@H](O)[C@@H]3O)ccc1-2 [Compound 223, 1-[2,7-bis[2-[(2R,3S,4R,5S,6R)-3,4,5-trihydroxy-6-(hydroxymethyl)tetrahydropyran-2-yl]ethynyl]spiro[fluorene-9,4piperidine]-1-yl]propan-1-one] | 0.06 nM |
| OC[C@H]1O[C@H](C#Cc2ccc(C#C[C@H]3O[C@H](CO)[C@@H](O)[C@H](O)[C@@H]3O)c(C(F)(F)F)c2)[C@@H](O)[C@@H](O)[C@@H]1O [Compound 91, (2R,3S,4R,5S,6R)-2-(hydroxymethyl)-6-[2-[3-(trifluoromethyl)-4-[2-[(2R,3S,4R,5S,6R)-3,4,5-trihydroxy-6-(hydroxymethyl)tetrahydropyran-2-yl]ethynyl]phenyl]ethynyl]tetrahydropyran-3,4,5-triol] | 58 nM |
| Cc1cc(C#C[C@H]2O[C@H](CO)[C@@H](O)[C@H](O)[C@@H]2O)ccc1-c1ccc(C#C[C@H]2O[C@H](CO)[C@@H](O)[C@H](O)[C@@H]2O)cc1C [Compound 124, (2R,3S,4R,5S,6R)-2-(hydroxymethyl)-6-[2-[3-methyl-4-[2-methyl-4-[2-[(2R,3S,4R,5S,6R)-3,4,5-trihydroxy-6-(hydroxymethyl)tetrahydropyran-2-yl]ethynyl]phenyl]phenyl]ethynyl]tetrahydropyran-3,4,5-triol] | 27 nM |
| CC(C)CC1(O)c2cc(C#C[C@H]3O[C@H](CO)[C@@H](O)[C@H](O)[C@@H]3O)ccc2-c2ccc(C#C[C@H]3O[C@H](CO)[C@@H](O)[C@H](O)[C@@H]3O)cc21 [Compound 169, (2R,3S,4R,5S,6R)-2-[2-[9-hydroxy-9-isobutyl-7-[2-[(2R,3S,4R,5S,6R)-3,4,5-trihydroxy-6-(hydroxymethyl)tetrahydropyran-2-yl]ethynyl]fluoren-2-yl]ethynyl]-6-(hydroxymethyl)tetrahydropyran-3,4,5-triol] | 0.66 nM |
| CC1(C(=O)c2c(C#C[C@H]3O[C@H](CO)[C@@H](O)[C@H](O)[C@@H]3O)ccc3c2C2(CCNCC2)c2cc(C#C[C@H]4O[C@H](CO)[C@@H](O)[C@H](O)[C@@H]4O)ccc2-3)CC1 [Compound 225, [2,7-bis[2-[(2R,3S,4R,5S,6R)-3,4,5-trihydroxy-6-(hydroxymethyl)tetrahydropyran-2-yl]ethynyl]spiro[fluorene-9,4piperidine]-1yl]-(1-methylcyclopropyl)methanone] | 1.2 nM |
| CCn1c2ccc(C#C[C@H]3O[C@H](CO)[C@@H](O)[C@H](O)[C@@H]3O)cc2c2cc(C#C[C@H]3O[C@H](CO)[C@@H](O)[C@H](O)[C@@H]3O)ccc21 [Compound 107, (2R,3S,4R,5S,6R)-2-[2-[9-ethyl-6-[2-[(2R,3S,4R,5S,6R)-3,4,5-trihydroxy-6-(hydroxymethyl)tetrahydropyran-2-yl]ethynyl]carbazol-3-yl]ethynyl]-6-(hydroxymethyl)tetrahydropyran-3,4,5-triol] | 13 nM |
| CO[C@H](C)C(=O)c1c(C#C[C@H]2O[C@H](CO)[C@@H](O)[C@H](O)[C@@H]2O)ccc2c1C1(CCNCC1)c1cc(C#C[C@H]3O[C@H](CO)[C@@H](O)[C@H](O)[C@@H]3O)ccc1-2 [Compound 229, (2R)-1-[2,7-bis[2-[(2R,3S,4R,5S,6R)-3,4,5-trihydroxy-6-(hydroxymethyl)tetrahydropyran-2-yl]ethynyl]spiro[fluorene-9,4piperidine]-1yl]-2-methoxy-propan-1-one] | 0.35 nM |
